US20020052363A1, “Inhibitors of prenyl-protein transferase” (priority 2000, published 2002)

Test system: prenyl-protein transferases
Test: the disclosed assays (not specified which)

## Cc1cccc(Oc2cc(Cn3c(CN4CCN(C(=O)OC(C)(C)C)CC4)cnc3C)ccc2C#N)n1 [Example 1 Step G, 1-(tert-butoxycarbonyl)-4-[1-(3-((6-methyl-2-pyridyl)oxy)-4-cyanobenzyl)-2-methyl-5-imidazolylmethyl]piperazine]
  activity in the disclosed assays: active
